According to US12291503B2, “Crystalline form of compound, method for preparing the same, pharmaceutical composition and use” (Beijing Konruns Pharmaceutical Co., Ltd., priority 2019, dated 2025):
Where two headings read alike, the source gives them in different places. One block for each compound: values may come before it.

Key:
[1] = Bioavailability analysis (pharmacokinetics) of crystalline forms in mice; format: in vivo; design: AUClast / AUCInf: concentration or dose not given beside the values; conditions: gavage, suspension in CMC-Na, mean
Description: Drug samples of different crystalline forms of the compound 1 were added to a solution of 1 CMC-Na respectively to prepare suspensions, which were administrated to mice by gavage. Drug samples of the different crystalline forms of the compound 1 were prepared into solutions in DMSO/PEG400/water and administered intravenously to mice. After drug administration, blood samples were collected from the dorsal vein of foot at different time points. After anticoagulation with heparin sodium, plasma was extracted by centrifugation. Plasma samples were analyzed by LC-MS/MS to obtain plasma drug concentrations. Pharmacokinetic parameters were calculated by WinNonlin (Phoenix™) The results of the bioavailability analysis for the crystalline form AB, the crystalline form M, and the crystalline form F are presented in Table 6.

[2] = Accelerated stability test of the crystalline form M and the crystalline form F (40±2° C., RH 75±5%, open petri dish); format: physicochemical; conditions: for Change in purity in 3 months' accelerated stability test: before and after grinding/pulverization
Description: Accelerated stability test: the crystalline form M of the compound 1 was contained in a petri dish, which was placed in an open manner in a closed container (desiccator) with a relative humidity of 75±5%; the desiccator was placed in an incubator at 40±2° C. for 3 months, and small samples were taken out at 0, 1, 2, 3 months respectively for detection.
Accelerated stability test: the crystalline form F of the compound 1 was contained in a petri dish, which was put in an open manner in a closed container (desiccator) with a relative humidity of 75±5%; the desiccator was placed in an incubator at 40±2° C. for 3 months; small samples were taken out at 0, 1, 2 and 3 months respectively for detection.

NCI-H1703 cells = test: Lung cancer subcutaneous xenotransplantation tumor model (NCI-H1703); format: in vivo, mice; conditions: for Tumor Inhibition Rate %: intragastric, 28 days, below line 'Micronization'
Description: NCIH-1703 cells were inoculated subcutaneously in mice to establish a lung cancer subcutaneous xenotransplantation tumor model. After 28 days of intragastric administration of the crystalline form AB to animals, tumors were taken and tumor volume data were collected.

VEGF-R2 = VEGF-R2 (Homo sapiens, UniProt P35968); test: IC50 against VEGF-R2; format: biochemical
[3] = Accelerated stability test of the crystalline form AB (40±2° C., RH 75%±5%, vials sealed and open); format: physicochemical; conditions: for Purity (HPLC method) Open / Purity (HPLC method) Sealed: 40±2° C., RH 75%±5%
Description: Accelerated stability test: the compound 1 was contained in vials, and these vials in sealed and open manners respectively were placed in closed containers (desiccators) with a relative humidity of 75%±5%; the desiccators were placed in an incubator at a temperature of 40±2° C. for 7 months; small samples were taken out at 0, 1, 2, 7 months respectively for detection.

AXL = biological target: T1, AXL (Homo sapiens, UniProt P30530); test: IC50 against AXL; format: biochemical
T1 sequence (P30530 26-894): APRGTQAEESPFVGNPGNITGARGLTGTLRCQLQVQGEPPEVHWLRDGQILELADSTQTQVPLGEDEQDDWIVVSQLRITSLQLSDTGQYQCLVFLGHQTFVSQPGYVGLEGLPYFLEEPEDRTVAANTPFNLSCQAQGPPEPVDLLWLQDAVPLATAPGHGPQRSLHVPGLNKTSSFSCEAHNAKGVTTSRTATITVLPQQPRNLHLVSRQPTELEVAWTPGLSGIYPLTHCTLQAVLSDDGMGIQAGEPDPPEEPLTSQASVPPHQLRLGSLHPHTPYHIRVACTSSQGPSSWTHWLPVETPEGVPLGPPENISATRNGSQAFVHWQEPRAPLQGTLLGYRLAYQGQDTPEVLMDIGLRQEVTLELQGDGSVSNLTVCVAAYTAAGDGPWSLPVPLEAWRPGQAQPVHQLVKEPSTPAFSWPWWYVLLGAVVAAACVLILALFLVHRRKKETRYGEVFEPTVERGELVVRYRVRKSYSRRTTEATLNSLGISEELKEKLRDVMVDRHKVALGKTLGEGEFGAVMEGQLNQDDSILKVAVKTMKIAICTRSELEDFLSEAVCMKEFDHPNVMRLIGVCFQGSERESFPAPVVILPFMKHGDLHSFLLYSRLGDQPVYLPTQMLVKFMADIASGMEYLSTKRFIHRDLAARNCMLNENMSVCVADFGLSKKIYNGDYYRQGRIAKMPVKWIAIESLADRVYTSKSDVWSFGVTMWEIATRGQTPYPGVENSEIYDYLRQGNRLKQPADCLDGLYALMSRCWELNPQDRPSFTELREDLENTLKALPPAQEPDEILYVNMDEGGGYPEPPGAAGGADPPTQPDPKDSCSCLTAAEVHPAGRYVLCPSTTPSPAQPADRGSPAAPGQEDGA

MOLM-13 cells = test: Human acute myeloid leukemia subcutaneous xenograft tumor model (MOLM-13); format: in vivo, mice
Description: Mice were inoculated subcutaneously with MOLM-13 cells and a human acute myeloid leukemia subcutaneous xenograft tumor model was established. After 14 days of intragastric administration of the crystalline form AB to animals, tumors were taken and tumor volume data were collected.

[4] = 1 month, open, 40±2° C., RH 75±5%
[5] = 2 months, open, 40±2° C., RH 75±5%
[6] = 3 months, open, 40±2° C., RH 75±5%

Chain of VEGF-R2 (P35968 20-1356): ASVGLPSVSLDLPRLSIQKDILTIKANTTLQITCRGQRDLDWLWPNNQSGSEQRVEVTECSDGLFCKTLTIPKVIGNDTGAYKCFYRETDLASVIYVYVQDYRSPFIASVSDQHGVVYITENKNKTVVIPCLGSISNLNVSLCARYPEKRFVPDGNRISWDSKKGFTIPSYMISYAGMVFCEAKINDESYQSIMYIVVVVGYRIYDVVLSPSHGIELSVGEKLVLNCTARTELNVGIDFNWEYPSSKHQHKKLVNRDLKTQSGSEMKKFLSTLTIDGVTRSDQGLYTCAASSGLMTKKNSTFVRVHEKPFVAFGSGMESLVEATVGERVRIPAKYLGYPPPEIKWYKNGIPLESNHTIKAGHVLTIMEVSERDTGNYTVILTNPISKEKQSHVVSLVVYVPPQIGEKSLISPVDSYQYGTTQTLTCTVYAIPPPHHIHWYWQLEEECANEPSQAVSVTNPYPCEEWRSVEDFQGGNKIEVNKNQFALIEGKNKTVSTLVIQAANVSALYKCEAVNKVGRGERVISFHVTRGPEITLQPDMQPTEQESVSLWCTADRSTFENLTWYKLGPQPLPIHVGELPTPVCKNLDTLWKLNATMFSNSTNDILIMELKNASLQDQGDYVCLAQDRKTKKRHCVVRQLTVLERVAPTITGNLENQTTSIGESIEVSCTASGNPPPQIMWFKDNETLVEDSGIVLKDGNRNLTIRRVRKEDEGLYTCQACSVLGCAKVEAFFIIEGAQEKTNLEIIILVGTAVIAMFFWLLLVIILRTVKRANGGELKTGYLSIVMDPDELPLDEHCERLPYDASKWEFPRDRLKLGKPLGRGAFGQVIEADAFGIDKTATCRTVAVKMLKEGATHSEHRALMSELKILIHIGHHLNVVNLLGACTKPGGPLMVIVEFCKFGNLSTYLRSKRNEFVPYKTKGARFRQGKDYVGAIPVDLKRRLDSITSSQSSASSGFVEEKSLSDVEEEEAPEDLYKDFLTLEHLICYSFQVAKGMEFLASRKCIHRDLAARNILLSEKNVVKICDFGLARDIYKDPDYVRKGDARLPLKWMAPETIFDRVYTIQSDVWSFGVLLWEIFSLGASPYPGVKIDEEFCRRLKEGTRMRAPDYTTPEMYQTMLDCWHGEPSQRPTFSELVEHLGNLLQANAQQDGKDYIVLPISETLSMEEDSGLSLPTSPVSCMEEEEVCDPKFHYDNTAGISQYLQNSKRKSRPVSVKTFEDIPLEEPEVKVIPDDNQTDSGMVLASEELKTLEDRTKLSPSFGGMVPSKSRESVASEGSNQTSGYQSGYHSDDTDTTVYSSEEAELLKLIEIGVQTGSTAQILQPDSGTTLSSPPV

AUCInf [1]: 1110 ng·h/mL
AUC_% Extrap [1]: 39%
AUClast [1]: 581 ng·h/mL
AUClast/D [1]: 58.1 ng·h/mL per mg/kg
Cmax [1]: 200 ng/mL
MRT [1]: 5.65 h
T1/2 [1]: 3.61 h
Tmax [1]: 0.917 h
Purity (HPLC method) After grinding ([2]; 0 month): 99.22%
Purity (HPLC method) Before grinding ([2]; 0 month): 99.21%
Purity (HPLC method) After grinding [2, 4]: 99.37%
Purity (HPLC method) Before grinding [2, 4]: 99.36%
Purity (HPLC method) After grinding [2, 5]: 99.17%
Purity (HPLC method) Before grinding [2, 5]: 99.16%
Purity (HPLC method) After grinding [2, 6]: 99.19%
Purity (HPLC method) Before grinding [2, 6]: 99.19%
Change in purity in 3 months' accelerated stability test [2]: substantially no change in purity
SMILES: COc1cc2c(Oc3ccc(NC(=O)C4(C(=O)Nc5ccc(F)cc5)CC4)cc3F)ccnc2cc1OCCCCCC(=O)O [crystalline form M, 6-[[4-[2-fluoro-4-[[1-[(4-fluorophenyl)aminoformyl]cyclopropanecarbonyl]amino]phenoxy]-6-methoxy-7-quinolyl]oxy] hexanoic acid]

AUCInf [1]: 675 ng·h/mL
AUC_% Extrap [1]: 22.7%
AUClast [1]: 505 ng·h/mL
AUClast/D [1]: 50.5 ng·h/mL per mg/kg
Cmax [1]: 201 ng/mL
MRT [1]: 3.05 h
T1/2 [1]: 1.7 h
Tmax [1]: 1.5 h
Purity (HPLC method) After grinding ([2]; 0 month): 99.13%
Purity (HPLC method) Before grinding ([2]; 0 month): 99.13%
Purity (HPLC method) After grinding [2, 4]: 99.32%
Purity (HPLC method) Before grinding [2, 4]: 99.33%
Purity (HPLC method) After grinding [2, 5]: 99.07%
Purity (HPLC method) Before grinding [2, 5]: 99.09%
Purity (HPLC method) After grinding [2, 6]: 99.06%
Purity (HPLC method) Before grinding [2, 6]: 99.07%
Change in purity in 3 months' accelerated stability test [2]: substantially no change in purity
SMILES: COc1cc2c(Oc3ccc(NC(=O)C4(C(=O)Nc5ccc(F)cc5)CC4)cc3F)ccnc2cc1OCCCCCC(=O)O [crystalline form F, 6-[[4-[2-fluoro-4-[[1-[(4-fluorophenyl)aminoformyl]cyclopropanecarbonyl]amino]phenoxy]-6-methoxy-7-quinolyl]oxy] hexanoic acid]

AUCInf [1]: 2414 ng·h/mL
AUC_% Extrap [1]: 1.19%
AUClast [1]: 2399 ng·h/mL
AUClast/D [1]: 240 ng·h/mL per mg/kg
Cmax [1]: 930 ng/mL
MRT [1]: 1.91 h
T1/2 [1]: 0.86 h
Tmax ([1]; mouse, plasma, po, 10 mg/kg, read-out: Tmax): 1.33 h
IC50 (VEGF-R2): 0.38 nM
Purity (HPLC method) Open ([3]; 1 month): 99.36%
Purity (HPLC method) Sealed ([3]; 1 month): 99.32%
Purity (HPLC method) Open ([3]; 2 months): 99.35%
Purity (HPLC method) Sealed ([3]; 2 months): 99.34%
Purity (HPLC method) Open ([3]; 7 months): 99.36%
Purity (HPLC method) Sealed ([3]; 7 months): 99.32%
Stability (conclusion in words) ([3]; accelerated stability test, 7 months): good stability
Purity (HPLC method) ([3]; storage time 0 month): 99.35%
IC50 (AXL): 0.24 nM
median effective dose EC50 (MOLM-13 cells; intragastric, 14 days): 1.5 mg/kg
SMILES: COc1cc2c(Oc3ccc(NC(=O)C4(C(=O)Nc5ccc(F)cc5)CC4)cc3F)ccnc2cc1OCCCCCC(=O)O [crystalline form AB, 6-[[4-[2-fluoro-4-[[1-[(4-fluorophenyl)aminoformyl]cyclopropanecarbonyl]amino]phenoxy]-6-methoxy-7-quinolyl]oxy] hexanoic acid]
Tumor growth (NCI-H1703 cells; 6.25 mg/kg): significantly inhibit tumor growth
Tumor Inhibition Rate % (NCI-H1703 cells; 6.25 mg/kg): 87.0%
Tumor growth (NCI-H1703 cells; 12.5 mg/kg): significantly inhibit tumor growth and tumor regression was observed for some mice
Tumor growth (NCI-H1703 cells; 12.5 mg/kg, 25 mg/kg and 50 mg/kg): significantly inhibited tumor growth and the number of tumor regression cases presented a gradual increase
Tumor Inhibition Rate % (NCI-H1703 cells; 12.5 mg/kg): 94.7%
Tumor Inhibition Rate % (NCI-H1703 cells; 25 mg/kg): 98.5%
Tumor Inhibition Rate % (NCI-H1703 cells; 50 mg/kg): 99.2%
Tumor Inhibition Rate % (MOLM-13 cells; 1.5 mg/kg, intragastric, 14 days): 51.5%
Tumor growth (MOLM-13 cells; 3 mg/kg): significantly inhibited tumor growth
Tumor Inhibition Rate % (MOLM-13 cells; 3 mg/kg, intragastric, 14 days): 81.9%
Tumor growth (MOLM-13 cells; 6 mg/kg or 6.25 mg/kg): inhibited tumor growth, and the tumor disappeared in some mice on day 14 after the administration
Tumor Inhibition Rate % (MOLM-13 cells; 6 mg/kg, intragastric, 14 days): 96.7%
Tumor Inhibition Rate % (MOLM-13 cells; 6.25 mg/kg, intragastric, 14 days): 95.6%
